From patent EP4494641A1, “SITAGLIPTIN IS A MALT1 INHIBITOR” (Cloudpharm Private Company, priority 2023, dated 2025)
Like-named read-outs stand apart in the source and are kept apart here.

Tests used:
[1] = test system: patient-derived glioblastoma cells (U3024); experiment: Spheroid disintegration in patient-derived glioblastoma cells over-expressing MALT1; format: cell-based, human; conditions: 10 µM; U3024 spheroids compared to untreated spheroids
From the text: (§1) To measure the MALT1-dependent antiproliferative effect of sitagliptin on GMB cell growth and at the same time account for biases, U3024, an established and characterized GBM cell line derived from GBM patient surgical samples was chosen (https://www.hgcc.se/). U3024 is of mesenchymal subtype (person) and is characterized by MALT1 overexpression. Cell lines were maintained in serum-free neural stem cell media to retain tumour-initiating capacity as well as tumour specific phenotypes (Pollard et al, 2009). The U87MG glioma cell line served as a bona fide human glioblastoma cell line. Cell cultures were performed in 3D. […] Cell lines were in log phase of growth, harvested and seeded in a 96-well plate at optimum plating density. […] DMSO was <0.05%.

[2] = target: T1, recombinant full-length human MALT1 (Homo sapiens, UniProt Q9UDY8); experiment: Fluorogenic MALT1 proteolytic activity assay with Ac-LRSR-AMC substrate; format: biochemical; conditions: read-out: percent inhibition of MALT1 proteolytic activity
T1 construct: recombinant full-length human MALT1
T1 sequence (Q9UDY8 1-824): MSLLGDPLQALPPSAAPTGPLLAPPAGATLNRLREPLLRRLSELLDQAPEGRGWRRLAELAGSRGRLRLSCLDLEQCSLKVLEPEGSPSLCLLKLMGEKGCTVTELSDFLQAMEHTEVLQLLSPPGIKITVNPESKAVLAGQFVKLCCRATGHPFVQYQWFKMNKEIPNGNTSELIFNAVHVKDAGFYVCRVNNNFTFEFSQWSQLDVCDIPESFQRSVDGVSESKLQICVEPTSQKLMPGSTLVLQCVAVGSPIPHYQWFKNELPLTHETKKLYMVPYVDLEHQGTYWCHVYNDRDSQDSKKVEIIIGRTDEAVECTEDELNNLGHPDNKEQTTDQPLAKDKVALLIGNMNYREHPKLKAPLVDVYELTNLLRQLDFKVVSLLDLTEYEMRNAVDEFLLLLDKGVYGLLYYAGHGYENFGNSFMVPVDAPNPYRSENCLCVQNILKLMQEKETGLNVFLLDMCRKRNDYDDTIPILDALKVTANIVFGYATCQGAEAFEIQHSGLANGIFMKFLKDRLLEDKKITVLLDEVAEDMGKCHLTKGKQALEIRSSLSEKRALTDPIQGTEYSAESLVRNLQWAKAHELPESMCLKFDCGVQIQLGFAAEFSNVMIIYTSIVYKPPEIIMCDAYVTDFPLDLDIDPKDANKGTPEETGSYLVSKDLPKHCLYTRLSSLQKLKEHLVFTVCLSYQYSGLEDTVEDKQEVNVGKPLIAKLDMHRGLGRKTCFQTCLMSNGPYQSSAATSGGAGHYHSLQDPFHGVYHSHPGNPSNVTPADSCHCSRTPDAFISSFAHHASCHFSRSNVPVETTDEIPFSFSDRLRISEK
Procedure: Fluorogenic reactions were monitored in the presence of recombinant full-length human MALT1 and Ac-LRSR-AMC (Ac-Leu-Arg-Ser-Arg-7-amino-4-methylcoumarin) - SEQ ID NO:1 - with excitation/emission wavelengths of 360/460 nm in black, low binding microtiter plates using a microplate reader. Cleavage of the Ac-LRSR-AMC substrate by MALT1 results in the release of AMC and a fluorescent signal. […] The final percent inhibition was calculated with the formula: {[fluorescence_test compound(T2-T1) - fluorescence_negative control (T2-T1)]/ [fluorescence_positive control (T2-T1) - fluorescence_negative control (T2-T1)]} × 100. […] A so-called buffer only test-condition (i.e. MALT1+Ac-LRSR-AMC substrate+buffer) served as negative control. […] MI-2 (C19H17Cl3N4O3; 2-chloro-N-[4-[5-(3,4-dichlorophenyl)-3-(2-methoxyethoxy)-1,2,4-triazol-1-yl] phenyl] acetamide) is an orthosteric and irreversible MALT1 inhibitor (Fontán et al, 2012).

[3] = target: T2, MALT1 (Homo sapiens, UniProt Q9UDY8); experiment: EC50 determination for MALT1 inhibition (Trypan blue dye-exclusion in cell lines); format: cell-based
T2 construct: endogenous in cells
T2 sequence (Q9UDY8 1-824): T1 sequence (Q9UDY8 1-824)
From the text: The term is quite general, regardless of whether a test-compound enhances or diminishes the biological parameter in question. Its equation is a modified version of the IC50 equation, taking the ratio of the response (R) to the maximum response (Rmax): {R/Rmax} = {1/ [1+(E50/I)n]}. […] However, some test-compounds achieve only partial attenuation of a biological activity, even at high concentrations. In this case, IC50 values may be misleading about potency.
Cell lines were in log phase of growth, harvested and seeded in a 96-well plate at optimum plating density. Next, cells were incubated with and without test-compounds (0.1 µM - 1 µM - 10 µM) in the presence of positive, negative and untreated controls.

[4] = target: T3, CYP2D6 (Homo sapiens, UniProt P10635); experiment: CYP450 inhibition/induction, baculosomes, fluorescent substrate, kinetic model; format: in vitro ADME; conditions: 1 µM; 20°C; t = 60 min
T3 construct: purchased Thermo Fisher Scientific (Waltham, MA, USA); host or cells: baculosomes
Procedure: (§2) To determine the isozyme-specific CYP450-metabolism, baculosomes® expressing CYP1A2, CYP2A6, CYP2B6, CYP2C9, CYP2C19, CYP2D6 and CYP3A4 human CYP450 isoenzymes were purchased from Thermo Fisher Scientific (Waltham, MA, USA). All reagents were handled and prepared according to the manufacturer's protocol. Sitagliptin was tested at 1 µM. Enzymatic activity in the presence of sitagliptin was assessed based on the kinetic model for CYP1A2, CYP2A6, CYP2B6, CYP2C9, CYP2C19, CYP2D6 and CYP3A4 isoforms. Reactions took place in triplicates at 20°C. Glucose-6-phosphate at 333 mM and glucose-6-phosphate-dehydrogenase at 30 U/mL in 100 mM potassium phosphate, pH 8.0 (regeneration system) converted NADP+ (10 mM in 100 mM potassium phosphate, pH 8.0) into NADPH to initiate the CYP450 reaction. Upon the addition of the fluorescent substrate, immediately (<2 min), the fluorescence signal was monitored over time at suitable excitation and emission wavelengths by Lionheart FX (BioTek, Winooski, VT, USA). CYP450 inhibition (%) was determined based on the reaction rates (fluorescence intensity changes per unit time).

[5] = target: CYP1A2 (Homo sapiens, UniProt P05177); experiment: as above; format: in vitro ADME; conditions: 1 µM; 20°C; t = 60 min
Procedure: as §2

[6] = target: T4, CYP2A6 (Homo sapiens, UniProt P11509); experiment: as above; format: in vitro ADME; conditions: 1 µM; 20°C; t = 60 min
T4 construct: purchased Thermo Fisher Scientific (Waltham, MA, USA); host or cells: baculosomes
T4 sequence (P11509 1-494): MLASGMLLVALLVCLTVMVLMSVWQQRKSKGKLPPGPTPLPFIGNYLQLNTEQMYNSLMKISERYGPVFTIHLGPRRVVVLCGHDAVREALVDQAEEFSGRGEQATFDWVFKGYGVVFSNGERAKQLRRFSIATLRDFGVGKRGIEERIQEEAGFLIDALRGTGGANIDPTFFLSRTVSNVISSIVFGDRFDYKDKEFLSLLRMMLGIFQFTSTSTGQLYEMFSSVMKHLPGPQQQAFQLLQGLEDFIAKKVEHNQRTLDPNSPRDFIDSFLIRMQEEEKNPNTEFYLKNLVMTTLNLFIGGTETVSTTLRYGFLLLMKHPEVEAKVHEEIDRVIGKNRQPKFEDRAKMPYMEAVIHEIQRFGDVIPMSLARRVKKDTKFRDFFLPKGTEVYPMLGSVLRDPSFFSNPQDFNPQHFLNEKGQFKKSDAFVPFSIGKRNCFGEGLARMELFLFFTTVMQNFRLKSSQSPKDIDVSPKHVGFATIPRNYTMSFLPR
Procedure: as §2

[7] = target: T5, CYP2C9 (Homo sapiens, UniProt P11712); experiment: as above; format: in vitro ADME; conditions: 1 µM; 20°C; t = 60 min
T5 construct: purchased Thermo Fisher Scientific (Waltham, MA, USA); host or cells: baculosomes
Procedure: as §2

[8] = target: T6, CYP2B6 (Homo sapiens, UniProt P20813); experiment: as above; format: in vitro ADME; conditions: 1 µM; 20°C; t = 60 min
T6 construct: purchased Thermo Fisher Scientific (Waltham, MA, USA); host or cells: baculosomes
T6 sequence (P20813 1-491): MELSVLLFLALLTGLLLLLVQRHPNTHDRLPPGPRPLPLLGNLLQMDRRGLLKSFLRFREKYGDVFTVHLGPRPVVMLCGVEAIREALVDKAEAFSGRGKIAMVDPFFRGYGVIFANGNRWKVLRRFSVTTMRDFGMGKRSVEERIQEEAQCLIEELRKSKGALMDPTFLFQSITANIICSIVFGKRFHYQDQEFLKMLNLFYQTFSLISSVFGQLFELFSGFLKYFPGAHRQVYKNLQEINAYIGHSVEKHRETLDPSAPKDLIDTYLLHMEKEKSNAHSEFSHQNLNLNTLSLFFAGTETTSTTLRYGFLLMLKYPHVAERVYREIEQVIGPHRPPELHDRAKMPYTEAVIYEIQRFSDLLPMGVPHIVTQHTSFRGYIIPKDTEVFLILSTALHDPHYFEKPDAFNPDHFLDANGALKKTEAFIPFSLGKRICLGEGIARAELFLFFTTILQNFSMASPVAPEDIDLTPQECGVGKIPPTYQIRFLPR
Procedure: as §2

[9] = target: T7, CYP2C19 (Homo sapiens, UniProt P33261); experiment: as above; format: in vitro ADME; conditions: 1 µM; 20°C; t = 60 min
T7 construct: purchased Thermo Fisher Scientific (Waltham, MA, USA); host or cells: baculosomes
Procedure: as §2

[10] = target: T8, CYP3A4 (Homo sapiens, UniProt P08684); experiment: as above; format: in vitro ADME; conditions: 1 µM; 20°C; t = 60 min
T8 construct: purchased Thermo Fisher Scientific (Waltham, MA, USA); host or cells: baculosomes
Procedure: as §2

[11] = test system: Glioblastoma multiforme (GBM) cell growth (U3024, U87MG); experiment: Antiproliferative effect on GBM cell growth, 3D cell cultures; format: cell-based, human; conditions: tested at 0.1 µM, 1 µM, and 10 µM at t=48h, 3D cultures
From the text: as §1, with “<0.05%. […] The results are mean ± standard deviation of three independent experiments done in triplicates. […] Three independent experiments were performed in triplicates.” for “<0.05%.”

T5 sequence (P11712 whole entry): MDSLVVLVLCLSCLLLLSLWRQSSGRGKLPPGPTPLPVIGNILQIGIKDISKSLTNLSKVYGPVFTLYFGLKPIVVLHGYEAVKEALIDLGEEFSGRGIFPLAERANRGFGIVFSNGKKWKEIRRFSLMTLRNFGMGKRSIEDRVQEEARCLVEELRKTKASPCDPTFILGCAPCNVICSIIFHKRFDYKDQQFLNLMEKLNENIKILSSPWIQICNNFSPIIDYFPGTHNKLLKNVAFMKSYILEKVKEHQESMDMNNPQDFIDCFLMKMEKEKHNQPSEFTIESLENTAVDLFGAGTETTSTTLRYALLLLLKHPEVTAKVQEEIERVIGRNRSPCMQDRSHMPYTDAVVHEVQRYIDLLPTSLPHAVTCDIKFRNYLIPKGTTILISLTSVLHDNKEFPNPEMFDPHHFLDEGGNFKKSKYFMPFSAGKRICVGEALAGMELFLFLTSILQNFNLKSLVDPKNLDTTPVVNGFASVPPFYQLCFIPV
T3 sequence (P10635 whole entry): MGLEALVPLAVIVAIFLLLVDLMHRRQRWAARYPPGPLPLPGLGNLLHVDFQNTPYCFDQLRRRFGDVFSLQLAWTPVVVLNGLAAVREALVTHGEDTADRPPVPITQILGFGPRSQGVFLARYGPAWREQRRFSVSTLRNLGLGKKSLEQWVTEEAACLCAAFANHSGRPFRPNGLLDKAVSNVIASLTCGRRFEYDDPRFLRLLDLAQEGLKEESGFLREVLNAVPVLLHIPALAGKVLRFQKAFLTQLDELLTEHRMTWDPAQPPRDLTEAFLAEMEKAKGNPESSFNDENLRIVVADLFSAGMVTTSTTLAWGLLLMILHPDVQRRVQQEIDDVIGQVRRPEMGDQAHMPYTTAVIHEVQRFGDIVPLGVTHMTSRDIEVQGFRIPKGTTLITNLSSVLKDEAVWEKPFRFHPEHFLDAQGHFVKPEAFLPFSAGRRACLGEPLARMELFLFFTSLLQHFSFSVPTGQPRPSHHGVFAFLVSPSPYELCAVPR
T8 sequence (P08684 whole entry): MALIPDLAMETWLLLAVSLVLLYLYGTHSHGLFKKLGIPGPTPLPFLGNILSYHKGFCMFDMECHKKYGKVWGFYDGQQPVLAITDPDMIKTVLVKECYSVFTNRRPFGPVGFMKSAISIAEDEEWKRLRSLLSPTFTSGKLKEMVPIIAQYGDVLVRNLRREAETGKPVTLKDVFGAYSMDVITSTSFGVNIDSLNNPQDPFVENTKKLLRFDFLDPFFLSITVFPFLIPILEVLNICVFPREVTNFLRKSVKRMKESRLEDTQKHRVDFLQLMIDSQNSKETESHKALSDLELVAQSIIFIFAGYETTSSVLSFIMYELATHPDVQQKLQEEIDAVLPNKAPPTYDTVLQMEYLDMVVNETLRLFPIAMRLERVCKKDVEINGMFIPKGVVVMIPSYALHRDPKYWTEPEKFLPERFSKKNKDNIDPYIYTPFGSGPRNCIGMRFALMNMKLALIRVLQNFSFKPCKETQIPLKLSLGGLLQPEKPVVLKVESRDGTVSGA
T7 sequence (P33261 whole entry): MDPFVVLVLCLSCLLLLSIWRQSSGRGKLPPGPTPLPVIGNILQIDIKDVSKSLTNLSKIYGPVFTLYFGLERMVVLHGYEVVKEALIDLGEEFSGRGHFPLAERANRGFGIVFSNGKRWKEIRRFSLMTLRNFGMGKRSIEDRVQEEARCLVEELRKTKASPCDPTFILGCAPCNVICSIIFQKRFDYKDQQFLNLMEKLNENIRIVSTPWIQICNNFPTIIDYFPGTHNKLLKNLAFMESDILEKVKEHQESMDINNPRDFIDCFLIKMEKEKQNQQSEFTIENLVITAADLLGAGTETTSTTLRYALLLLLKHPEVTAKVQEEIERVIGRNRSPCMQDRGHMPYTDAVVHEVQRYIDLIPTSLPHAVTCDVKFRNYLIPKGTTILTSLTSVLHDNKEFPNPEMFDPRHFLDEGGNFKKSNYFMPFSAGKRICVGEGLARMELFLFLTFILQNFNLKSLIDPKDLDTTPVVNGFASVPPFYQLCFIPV
Chain of CYP1A2 (P05177 whole entry): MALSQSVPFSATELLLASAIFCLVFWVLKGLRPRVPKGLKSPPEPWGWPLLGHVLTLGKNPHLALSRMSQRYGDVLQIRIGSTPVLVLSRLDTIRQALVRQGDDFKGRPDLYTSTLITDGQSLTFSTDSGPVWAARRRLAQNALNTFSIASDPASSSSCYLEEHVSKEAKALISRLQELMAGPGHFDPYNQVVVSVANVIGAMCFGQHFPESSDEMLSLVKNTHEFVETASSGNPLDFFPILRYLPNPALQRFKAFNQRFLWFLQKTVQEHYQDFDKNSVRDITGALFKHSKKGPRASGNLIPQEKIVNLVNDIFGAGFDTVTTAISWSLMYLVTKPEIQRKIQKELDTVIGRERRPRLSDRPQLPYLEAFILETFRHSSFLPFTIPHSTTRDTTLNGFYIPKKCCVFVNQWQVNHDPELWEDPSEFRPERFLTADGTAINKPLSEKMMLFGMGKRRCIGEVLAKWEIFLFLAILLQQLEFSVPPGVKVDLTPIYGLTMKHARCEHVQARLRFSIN

| SMILES | inhibition of MALT1 resulting in spheroid disintegration [1] | inhibition at 10 µM [2] | EC50 ([3]; 0.1 µM - 1 µM - 10 µM, Trypan blue dye-exclusion at t=48h, mean of three independent experiments in triplicates, read-out: EC50 values) | CYP2D6 inhibition / induction [4] | CYP1A2 inhibition / induction [5] | CYP2A6 inhibition / induction [6] | CYP2C9 inhibition / induction [7] | CYP2B6 inhibition / induction [8] | CYP2C19 inhibition / induction [9] | CYP3A4 inhibition / induction [10] | antiproliferative effect on GBM cell growth [11] | EC50 [3] |
| --- | --- | --- | --- | --- | --- | --- | --- | --- | --- | --- | --- | --- |
| N[C@@H](CC(=O)N1CCn2c(nnc2C(F)(F)F)C1)Cc1cc(F)c(F)cc1F [Sitagliptin, (3R)-3-amino-1-[3-(trifluoromethyl)-6,8-dihydro-5H-[1,2,4]triazolo[4,3-a]pyrazin-7-yl]-4-(2,4,5-trifluorophenyl)butan-1-one] | spheroid disintegration | ≥ 40% | 1.3 µM | does not inhibit nor induces | does not inhibit nor induces | does not inhibit nor induces | does not inhibit nor induces | does not inhibit nor induces | does not inhibit nor induces | does not inhibit nor induces | strong antiproliferative effect | – |
| COCCOc1nc(-c2ccc(Cl)c(Cl)c2)n(-c2ccc(NC(=O)CCl)cc2)n1 [MI-2, 2-chloro-N-[4-[5-(3,4-dichlorophenyl)-3-(2-methoxyethoxy)-1,2,4-triazol-1-yl]phenyl] acetamide] | – | – | – | – | – | – | – | – | – | – | – | 1 µM |
